Among the data in patent US9884063B2, “Amido-substituted azole compounds” (Bayer Pharma Aktiengesellschaft, priority 2014, dated 2018) are IC50 values, retold here.

As usually defined, the IC50 is the midpoint of a concentration-inhibition curve. A low value points to greater potency in that assay.

The target of one experiment is T1, TNKS2 (Homo sapiens, UniProt Q9H2K2).
T1 sequence (Q9H2K2 1-1166): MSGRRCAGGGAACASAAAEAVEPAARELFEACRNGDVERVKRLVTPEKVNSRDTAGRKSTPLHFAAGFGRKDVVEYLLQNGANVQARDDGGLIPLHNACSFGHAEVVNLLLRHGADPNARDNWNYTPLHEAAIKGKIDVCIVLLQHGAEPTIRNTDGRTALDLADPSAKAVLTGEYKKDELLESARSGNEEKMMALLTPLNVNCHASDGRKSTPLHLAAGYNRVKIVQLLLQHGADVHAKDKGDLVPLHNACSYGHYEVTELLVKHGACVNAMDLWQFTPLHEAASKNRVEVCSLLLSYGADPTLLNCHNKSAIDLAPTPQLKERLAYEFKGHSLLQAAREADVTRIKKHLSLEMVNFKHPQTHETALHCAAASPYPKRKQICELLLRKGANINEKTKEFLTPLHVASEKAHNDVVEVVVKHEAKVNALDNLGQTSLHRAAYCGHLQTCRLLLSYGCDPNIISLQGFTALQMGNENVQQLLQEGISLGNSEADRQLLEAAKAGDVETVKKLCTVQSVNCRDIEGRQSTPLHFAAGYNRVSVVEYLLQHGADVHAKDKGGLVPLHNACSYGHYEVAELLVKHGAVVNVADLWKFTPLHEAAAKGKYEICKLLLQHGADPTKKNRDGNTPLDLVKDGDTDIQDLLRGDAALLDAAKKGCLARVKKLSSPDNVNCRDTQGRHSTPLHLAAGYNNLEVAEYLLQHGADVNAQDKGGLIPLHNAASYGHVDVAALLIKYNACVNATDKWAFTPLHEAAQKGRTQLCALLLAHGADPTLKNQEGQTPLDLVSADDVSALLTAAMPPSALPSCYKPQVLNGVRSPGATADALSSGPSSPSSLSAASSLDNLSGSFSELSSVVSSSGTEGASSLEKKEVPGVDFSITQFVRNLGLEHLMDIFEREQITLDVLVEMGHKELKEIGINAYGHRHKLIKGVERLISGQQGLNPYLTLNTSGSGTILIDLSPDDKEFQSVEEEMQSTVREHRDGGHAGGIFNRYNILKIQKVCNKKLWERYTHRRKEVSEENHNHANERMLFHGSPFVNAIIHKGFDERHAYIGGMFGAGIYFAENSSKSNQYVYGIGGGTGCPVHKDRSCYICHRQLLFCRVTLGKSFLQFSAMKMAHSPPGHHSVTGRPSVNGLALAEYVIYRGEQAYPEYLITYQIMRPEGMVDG
Briefly: Modified TNKS2 Assay 2 (auto-parsylation, [3H]-NAD+ SPA). Format: biochemical. As to conditions: 6 nM TNKS2, 96 well.

In experiment [1] the test system is wildtype Wnt signaling cascade. The experiment can be described thus: HEK293 TOP Assay (Super TopFlash luciferase reporter, Wnt-3a stimulated). Format: cell-based. The following applies: Homo sapiens, HEK293, 16 h. The method, boiled down: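 HEK293 cells stably carrying Super TopFlash (TOP) or FOP reporter, stimulated with recombinant human Wnt-3a (2500–5 ng/ml, two-fold steps). Both lines incubated in parallel with compound from 50 μM to 15 nM (3.16-fold) in CAFTY buffer pH 7.4 with 2 mM Ca2+ and 0.01% BSA; selectivity judged TOP vs FOP.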
(In general: Reporter assays use an easily measured gene product as a stand-in for the process of interest.)

The mark [2] stands for this setting: HEK293 TOP reporter cell line, Wnt-3a at EC50, 16 hours incubation, compound dilution series 50 μM to 15 nM.
The mark [3] stands for this setting: HEK293 TOP reporter cells, Wnt3a at EC50, 16 hours, luciferase.

As to `CNC(=O)c1nc[nH]c1C(=O)Nc1ccc(NC(=O)c2ccncc2Cl)cc1` [Example 6, N^5-{4-[(3-chloroisonicotinoyl)amino]phenyl}-N^4-methyl-1H-imidazole-4,5-dicarboxamide], the values for the half-inhibitory concentration (IC50) (against TNKS2; in experiment [1] (setting [2]); in experiment [1] (setting [3])) were 180 nM, 230 nM and 230 nM, respectively.
As for `CNC(=O)c1nc[nH]c1C(=O)Nc1ccc(NC(=O)c2cc(OCCN3CCCCC3)ccc2Cl)cc1` [Example 125, N^5-[4-({2-chloro-5-[2-(piperidin-1-yl)ethoxy]benzoyl}amino)phenyl]-N^4-methyl-1H-imidazole-4,5-dicarboxamide], the 50% inhibitory concentration (IC50) at TNKS2 is > 10000 nM; in experiment [1] (setting [2]) it was 4100 nM.
In the same order, the values of `CNC(=O)c1nc[nH]c1C(=O)Nc1ccc(NC(=O)c2ccccc2O)cc1` [Example 239, N^5-{4-[(2-hydroxybenzoyl)amino]phenyl}-N^4-methyl-1H-imidazole-4,5-dicarboxamide] are > 10000 nM and 46500 nM.
In the same order, the values of `CNC(=O)c1nc[nH]c1C(=O)Nc1ccc(NC(=O)c2cccc(OC)c2Cl)cc1` [Example 252, N^5-{4-[(2-chloro-3-methoxybenzoyl)amino]phenyl}-N^4-methyl-1H-imidazole-4,5-dicarboxamide] are 3800 nM and 4050 nM.
With `CNC(=O)c1nc[nH]c1C(=O)Nc1ccc(NC(=O)c2ncccc2Cl)cc1` [Example 247, N^5-(4-{[(3-chloropyridin-2-yl)carbonyl]amino}phenyl)-N^4-methyl-1H-imidazole-4,5-dicarboxamide], the IC50 turned out to be 570 nM against TNKS2 and 400 nM in experiment [1] (setting [2]).
Regarding `CCS(=N)(=O)c1ccc(C(=O)Nc2ccc(NC(=O)c3[nH]cnc3C(=O)NCCN3CCCCC3)cc2)c(Cl)c1` (stereo not drawn) [Example 256, N^5-(4-{[2-chloro-4-(S-ethylsulfonimidoyl)benzoyl]amino}phenyl)-N^4-[2-(piperidin-1-yl)ethyl]-1H-imidazole-4,5-dicarboxamide], the IC50 was 10 nM against TNKS2 and 900 nM in experiment [1] (setting [2]).
The like results for `CNC(=O)c1nc[nH]c1C(=O)Nc1ccc(NC(=O)c2ccc(OC(F)(F)F)cc2F)cc1` [Example 253, N^5-(4-{[2-fluoro-4-(trifluoromethoxy)benzoyl]amino}phenyl)-N^4-methyl-1H-imidazole-4,5-dicarboxamide] were, in that order, > 10000 nM and 12000 nM.
In the same order, the values of `CNC(=O)c1nc[nH]c1C(=O)Nc1ccc(NC(=O)c2ccc(OC(F)F)cc2F)cc1` [Example 251, N^5-(4-{[4-(difluoromethoxy)-2-fluorobenzoyl]amino}phenyl)-N^4-methyl-1H-imidazole-4,5-dicarboxamide] are > 10000 nM and 7900 nM.
In the same order, the values of `COCCNC(=O)c1[nH]cnc1C(=O)Nc1ccc(NC(=O)c2ccc(F)cc2Cl)cc1` [Example 130, N^4-{4-[(2-chloro-4-fluorobenzoyl)amino]phenyl}-N^5-(2-methoxyethyl)-1H-imidazole-4,5-dicarboxamide] are 70 nM and 250 nM.
On to `CN(C)C(=O)c1nc[nH]c1C(=O)Nc1ccc(NC(=O)c2ccc(F)cc2Cl)cc1` [Example 24, N^5-{4-[(2-chloro-4-fluorobenzoyl)amino]phenyl}-N^4,N^4-dimethyl-1H-imidazole-4,5-dicarboxamide], for which the IC50 on TNKS2 amounted to 3400 nM; in experiment [1] (setting [2]) it was 2130 nM; in experiment [1] (setting [3]), 2050 nM.
Turning to `CC(C)CNC(=O)c1[nH]cnc1C(=O)Nc1ccc(NC(=O)c2ccc(F)cc2Cl)cc1` [Example 147, N^4-{4-[(2-chloro-4-fluorobenzoyl)amino]phenyl}-N^5-isobutyl-1H-imidazole-4,5-dicarboxamide], the figures for the concentration for half-maximal inhibition (IC50) (against TNKS2; in experiment [1] (setting [2])) were 110 nM and 320 nM, respectively.
With `CNC(=O)c1nc[nH]c1C(=O)Nc1ccc(NC(=O)c2ccc(F)cc2Cl)cc1` [Example 12, N^5-{4-[(2-chloro-4-fluorobenzoyl)amino]phenyl}-N^4-methyl-1H-imidazole-4,5-dicarboxamide], the IC50 on TNKS2 was determined as 60 nM; in experiment [1] (setting [2]) it was 140 nM; in experiment [1] (setting [3]), 150 nM.
